According to US20260306641A1, “HELICASE DEGRADERS” (priority 2023, published 2026):

Tests used:
[1] = test system: CMG proteins in 143B cells; assay: Immunoblot of chromatin-bound proteins, asynchronous 143B OS cells; format: cell-based, human; conditions: 24 hrs
Procedure: FIGS. 7A-7C depict that CMGi induce DNA damage and selectively reduce tumor cell viability. (FIG. 7A) Cell Titer Glo viability assays for CA1/CMGi sensitivity were performed on 143B (OS), Psn1 (PDAC), and H460 (NSCLC) tumor lines. Novobiocin was tested against 143B cells as a comparison. (FIG. 7B) Immunoblot of chromatin-bound proteins (as indicated) from asynchronous 143B OS cells treated with 10 μM novobiocin or increasing concentrations of CA1 for 24 hrs. (FIG. 7C) Immunoblot of total proteins from Psn1, H460, 143B, and HaCaT cells treated with 5 μM CA1/CMGi or DMSO/novobiocin controls, or HaCaT treated with 15 μM CA1/CMGi (right side). The Psn1 and H460 cells were treated for 24 hrs, and 143B and HaCaT cells were treated for 48 hrs. Probing of blots was done with anti-gamma-H2AX (DNA damage signal) or anti-cleaved-Parp (apoptotic indicator). Anti-GAPDH is a loading control.

HPV18-E1 helicase = HPV18-E1 helicase (human papillomavirus 18, UniProt P06789); assay: HPV18-E1 helicase assay; format: biochemical, human papilloma virus 18; conditions: requires higher CA1 concentrations than CMG
Procedure: The HPV16 or HPV18 E1 helicase domain (16E1HD or 18E1HD) was expressed and purified from Sf9 cells by infecting the cells with 2Flag-GST-E1 baculovirus. The cleared cell lysates were prepared as for large T antigen and incubated with Glutathione beads at 4° C. overnight. The bound E1 proteins were eluted from beads with 20 mM reduced glutathione in Q buffer, applied to a Q Sepharose Fast Flow column, and eluted with 0.75 M potassium acetate in Q buffer. Purified E1 proteins were obtained by further incubation with Flag-M2 beads and elution with Flag peptides.
Helicase fork-unwinding assays were performed at 37° C. for 1 hr in 20 μL reaction volumes using 2-4 μl of hCMG (~15-30 fmol), in a buffer consisting of 25 mM Hepes-NaOH (pH 7.5), 5 mM NaCl, 0.5 mM ATP, 10 mM magnesium acetate, 1 mM DTT, 0.1 mg/ml bovine serum albumin (BSA), and ~10 fmol of radiolabeled DNA forks (20). Reactions were terminated with 4 μl of 6× stop solution [50 mM EDTA (pH 8.0), 40% (vol/vol) glycerol, 2% (wt/vol) SDS, and 0.3% bromophenol blue], loaded onto 10% (wt/vol) polyacrylamide gels, resolved at 150 volts in 1×-TBE buffer (89 mM Tris base, 89 mM boric acid, and 2 mM EDTA), dried on filter paper, and analyzed by autoradiography and quantified by PhosphorImager assessment. […]

[2] = test system: bacterial type-2 topoisomerase, gyrase; conditions: cited from earlier work

Chain of HPV18-E1 helicase (P06789 305-657): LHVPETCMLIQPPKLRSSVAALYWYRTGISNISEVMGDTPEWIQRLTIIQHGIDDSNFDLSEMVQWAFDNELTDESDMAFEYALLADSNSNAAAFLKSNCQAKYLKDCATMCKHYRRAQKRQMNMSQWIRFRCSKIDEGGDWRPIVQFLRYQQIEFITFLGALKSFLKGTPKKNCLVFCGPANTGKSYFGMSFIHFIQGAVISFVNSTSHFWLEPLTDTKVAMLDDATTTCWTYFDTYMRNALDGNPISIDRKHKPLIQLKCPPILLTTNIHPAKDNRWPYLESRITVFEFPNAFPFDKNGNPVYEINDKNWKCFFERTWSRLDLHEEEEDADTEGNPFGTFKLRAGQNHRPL

CO[C@@H]1[C@@H](OC(=O)c2ccc(C)[nH]2)[C@@H](O)[C@H](Oc2ccc3c(O)c(NC(=O)c4c[nH]c(C(=O)Nc5c(O)c6ccc(O[C@@H]7OC(C)(C)[C@H](OC)[C@@H](OC(=O)c8ccc(C)[nH]8)[C@H]7O)c(C)c6oc5=O)c4C)c(=O)oc3c2C)OC1(C)C [CA1]
MCM levels ([1]; higher CA1 doses): MCM levels start to diminish
RPA levels ([1]; low micromolar CA1): reducing RPA levels in a dose-dependent manner
chromatin-bound levels of Cdc45, Psf1 and Psf2 ([1]; low micromolar CA1): reducing the chromatin-bound levels of Cdc45, Psf1, and Psf2
HPV18-E1 helicase sensitivity (HPV18-E1 helicase): sensitive to CA1, but require higher CA1 concentrations
gyrase inhibition [2]: known to inhibit the bacterial type-2 topoisomerase, gyrase
